PubChem BioAssay AID1963965 (Molecular Pharmacology Branch, DTP, NCI, 2024)
Values joined by “and” are separate entries in the source; they are usually repeats but may differ in a detail not shown here. Identical values can stand only once.

System: 996289-038-R-J1-PDC spheroid viability
Assay: Anticancer human tumor 996289-038-R-J1-PDC patient-derived colon adenocarcinoma cell line growth inhibition [PI3K]
Details: spheroids with HUVEC and MSC; for viability, T/C: stronger effect = lower value; active = viability on the fitted dose curve at most 10% of control; inactive = the rest
Description: Combinatorial screen of targeted agents with the PI3K inhibitors inavolisib, alpelisib, duvelisib, and copanlisib in multi-cell type tumor spheroids
A high-throughput screen of multi-cell type tumor spheroids was designed to identify active combinations of targeted small molecules and PI3K pathway inhibitors. Complex spheroids include a stromal component modeled by human endothelial cells (HUVEC) and fibroblasts modeled by human mesenchymal stem cells (MSCs). The concentration ranges selected for each drug and investigational agent were based upon clinically achievable concentrations if the clinical Cmax of the agent was known.
Compounds. The drugs and investigational agents: inavolisib (NSC800729), alpelisib (NSC765974), duvelisib (NSC772469), copanlisib (NSC816437), ipatasertib (NSC767898), afuresertib (NSC778305), talazoparib (NSC767125), sapanisertib (NSC764658), selumetinib (NSC741078), tovorafenib (DAY101, NSC766906), vemurafenib (NSC761431), ravoxertinib (NSC781343), sotorasib (NSC818433), MRTX1133 (NSC 836407), abemaciclib (NSC 768073), palbociclib (NSC758247), venetoclax (NSC 766270), SY5609 (NSC837396), enzalutamide (NSC755605), and darolutamide (NSC825331), were obtained from the National Cancer Institute (NCI) Developmental Therapeutics Program Chemical Repository. The FDA-approved anticancer drug set is available from the NCI Developmental Therapeutics Program. […] The stock solutions were prepared in dimethyl sulfoxide (DMSO, Sigma-Aldrich, St. Louis, MO, cat. D2650) at 800-fold the tested concentration and stored at -70 degrees C prior to their use. All drugs and investigational agents were tested over a range starting from a high concentration at or near the clinical Cmax and decreasing in half-log increments. If the clinical Cmax for an agent had not been determined, the highest concentration tested was 10 microM.
Cell Culture. All cells were maintained in an incubator at 37 degrees C and 5% CO2 with 95% humidity. The PDC lines were cultured according to standard operating procedures established by the NCI PDMR (https://pdmr.cancer.gov/sops/default.htm). All PDCs were thawed and cultured in Matrigel-coated flasks prepared with a working solution of 1X Ham's F-12 nutrient mix, without supplementation (Invitrogen, Waltham, MA, cat. 11765054), 100 U/mL penicillin-streptomycin (Invitrogen, cat. 15140122), and 2.5% Matrigel (Corning Inc., Corning, NY, cat. 354248) for the first three passages. The 354836-022-R-J1-PDC, 475296-252-R-J1-PDC, and 997726-040-R-J2-PDC lines were cultured in 6A media, which includes advanced DMEM/F-12 (Thermo Fisher Scientific, cat. 12634028), 10 mM HEPES (Thermo Fisher Scientific, cat. 15630080), 1X GlutaMAX supplement (Thermo Fisher Scientific, cat. 35050061), 0.1 mg/mL primocin (InvivoGen, San Diego, CA, cat. ant-pm-2), 10% defined fetal bovine serum, heat inactivated (HyClone Laboratories Inc., Logan, UT, cat. SH30070.03HI), 50% L-WRN conditioned media (ATCC, cat. CRL-3276), 1.25 mM N-Acetyl-L-cysteine (Sigma-Aldrich, cat. A9165), 10 mM nicotinamide (Sigma-Aldrich, cat. N0636), 1X B-27 supplement (Thermo Fisher Scientific, cat. 17504044), 1X N-2 supplement (Thermo Fisher Scientific, cat. 17502048), and 10 microM Y-27632 dihydrochloride (Tocris Bioscience, Bristol, United Kingdom, cat. 1254). The 624824-186-R-J2-PDC line was cultured in 6C/Colon 1B media, which includes all 6A media components plus 50 ng/mL human EGF recombinant protein (Thermo Fisher Scientific, cat. PHG0311). […]
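Note: spheroids exposed to compounds for seven days before viability read.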
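Throughout, for viability, T/C: luminescence used as a proxy for viable cell amount; percent viability relative to DMSO vehicle control as 100%.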

C#Cc1c(F)ccc2cc(O)cc(-c3ncc4c(N5CC6CCC(C5)N6)nc(OCC56CCCN5CC(F)C6)nc4c3F)c12 (stereo unspecified)
inactive: viability, T/C (compound 0.0316 µM) 90.4% [middle of 4 runs] | viability, T/C (compound 0.1 µM) 83.8% [middle of 4 runs] | viability, T/C (compound 0.316 µM) 70.2% [middle of 4 runs] | viability, T/C (compound 1 µM) 52.4% [middle of 4 runs] | viability, T/C (compound 3.16 µM) 44.8% [middle of 4 runs] | viability, T/C (compound 10 µM) 37.7% [middle of 4 runs]
1.79 µM [middle of 4 runs]: IC50 (curve of compound)

CC1(C)CCC(CN2CCN(c3ccc(C(=O)NS(=O)(=O)c4ccc(NCC5CCOCC5)c([N+](=O)[O-])c4)c(Oc4cnc5[nH]ccc5c4)c3)CC2)=C(c2ccc(Cl)cc2)C1
> 10000 nM and 8800 nM and 8700 nM: IC50 (curve of compound)
inactive: viability, T/C (compound 0.1 µM) 103% [middle of 4 runs] | viability, T/C (compound 0.316 µM) 101% [middle of 4 runs] | viability, T/C (compound 1 µM) 111% [middle of 4 runs] | viability, T/C (compound 3.16 µM) 112% [middle of 4 runs] | viability, T/C (compound 10 µM) 59.5% [middle of 4 runs]

CC1(C)CCC(Nc2ncc(C(F)(F)F)c(-c3c[nH]c4c(P(C)(C)=O)c(C#N)ccc34)n2)CN1 (stereo unspecified)
inactive: viability, T/C (compound 0.1 µM) 86.5% [middle of 4 runs] | viability, T/C (compound 0.316 µM) 86% [middle of 4 runs] | viability, T/C (compound 1 µM) 88.9% [middle of 4 runs] | viability, T/C (compound 3.16 µM) 91.5% [middle of 4 runs] | viability, T/C (compound 10 µM) 26.9% [middle of 4 runs]
6.64 µM [middle of 4 runs]: IC50 (curve of compound)

Cn1cnc2c(F)c(Nc3ccc(Br)cc3Cl)c(C(=O)NOCCO)cc21 + CC(Nc1ccc2c(c1)OCCn1cc(N3C(=O)OCC3C(F)F)nc1-2)C(N)=O
285 nM: IC50 (curve of first compound, second compound 0.00316 µM)
38.9 nM: IC50 (curve of first compound, second compound 0.316 µM)
inactive: viability, T/C (second compound 0.00316 µM, first compound 0.00949 µM) 100% | viability, T/C (second compound 0.00316 µM, first compound 0.03 µM) 84.9% | viability, T/C (second compound 0.00316 µM, first compound 0.0949 µM) 64% | viability, T/C (second compound 0.00316 µM, first compound 0.3 µM) 51% | viability, T/C (second compound 0.00316 µM, first compound 0.949 µM) 35.1% | viability, T/C (second compound 0.00316 µM, first compound 3 µM) 26.2% | viability, T/C (second compound 0.01 µM, first compound 0.00949 µM) 95.9% | viability, T/C (second compound 0.01 µM, first compound 0.03 µM) 74.2% | viability, T/C (second compound 0.01 µM, first compound 0.0949 µM) 71.6% | viability, T/C (second compound 0.01 µM, first compound 0.3 µM) 49.9% | viability, T/C (second compound 0.01 µM, first compound 0.949 µM) 36.3% | viability, T/C (second compound 0.01 µM, first compound 3 µM) 24.7% | viability, T/C (second compound 0.0316 µM, first compound 0.00949 µM) 95.3% | viability, T/C (second compound 0.0316 µM, first compound 0.03 µM) 79.7% | viability, T/C (second compound 0.0316 µM, first compound 0.0949 µM) 58.6% | viability, T/C (second compound 0.0316 µM, first compound 0.3 µM) 44.1% | viability, T/C (second compound 0.0316 µM, first compound 0.949 µM) 35.6% | viability, T/C (second compound 0.0316 µM, first compound 3 µM) 23.7% | viability, T/C (second compound 0.1 µM, first compound 0.00949 µM) 84.7% | viability, T/C (second compound 0.1 µM, first compound 0.03 µM) 69.3% | viability, T/C (second compound 0.1 µM, first compound 0.0949 µM) 47.3% | viability, T/C (second compound 0.1 µM, first compound 0.3 µM) 35% | viability, T/C (second compound 0.1 µM, first compound 0.949 µM) 26.7% | viability, T/C (second compound 0.1 µM, first compound 3 µM) 18.5% | viability, T/C (second compound 0.316 µM, first compound 0.00949 µM) 60.6% | viability, T/C (second compound 0.316 µM, first compound 0.03 µM) 53.4% | viability, T/C (second compound 0.316 µM, first compound 0.0949 µM) 41.8% | viability, T/C (second compound 0.316 µM, first compound 0.3 µM) 31.1% | viability, T/C (second compound 0.316 µM, first compound 0.949 µM) 24.9% | viability, T/C (second compound 0.316 µM, first compound 3 µM) 13.7% | viability, T/C (second compound 1 µM, first compound 0.00949 µM) 58.7% | viability, T/C (second compound 1 µM, first compound 0.03 µM) 48% | viability, T/C (second compound 1 µM, first compound 0.0949 µM) 38.4% | viability, T/C (second compound 1 µM, first compound 0.3 µM) 27.4% | viability, T/C (second compound 1 µM, first compound 0.949 µM) 18.9% | viability, T/C (second compound 1 µM, first compound 3 µM) 11.4%
25.2 nM: IC50 (curve of first compound, second compound 1 µM)
91.1 nM: IC50 (curve of first compound, second compound 0.1 µM)
206 nM: IC50 (curve of first compound, second compound 0.0316 µM)
339 nM: IC50 (curve of first compound, second compound 0.01 µM)
